Active and inactive are the calls of the source.
How the values were obtained:
Bcl-2-related protein A1 [1] = molecular target: T1, Bcl-2-related protein A1 (Mus musculus, UniProt Q07440); assay: Bfl-1 binding inhibitors, SAR follow-up, biochemical, fluorescence polarization (AID 1070)
T1 sequence (Q07440 whole entry): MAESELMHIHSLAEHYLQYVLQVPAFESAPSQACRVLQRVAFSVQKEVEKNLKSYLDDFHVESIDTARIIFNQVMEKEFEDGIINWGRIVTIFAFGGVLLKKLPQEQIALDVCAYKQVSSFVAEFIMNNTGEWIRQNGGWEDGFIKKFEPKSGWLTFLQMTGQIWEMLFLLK

Bcl-2-related protein A1 [2] = molecular target: T1, Bcl-2-related protein A1; assay: small-molecule antagonists of Bfl-1/BH3 interaction – biochemical, TR-FRET, mouse Bfl-1, confirmation (AID 621);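 note: TR-FRET binding of GST-Bfl-1 to FITC-labelled Bid peptide via terbium antibody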
[3] = molecular target: Glyceraldehyde-3-phosphate dehydrogenase (Homo sapiens, UniProt P04406)
Sequence of Glyceraldehyde-3-phosphate dehydrogenase (P04406 whole entry): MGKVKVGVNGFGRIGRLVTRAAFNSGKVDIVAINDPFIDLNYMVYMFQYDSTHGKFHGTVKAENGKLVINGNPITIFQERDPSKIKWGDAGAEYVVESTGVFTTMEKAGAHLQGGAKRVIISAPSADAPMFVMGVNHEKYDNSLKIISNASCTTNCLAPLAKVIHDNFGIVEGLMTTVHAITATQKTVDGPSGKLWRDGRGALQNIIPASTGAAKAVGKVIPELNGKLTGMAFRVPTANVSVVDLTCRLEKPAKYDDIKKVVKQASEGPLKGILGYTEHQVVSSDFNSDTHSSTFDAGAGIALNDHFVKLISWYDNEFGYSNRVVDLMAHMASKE

[4] = molecular target: E3 ubiquitin-protein ligase Mdm2 (Homo sapiens, UniProt Q00987); assay: MDM2-luc reporter signal enhancers, multi-concentration potency testing, MDM2 ubiquitin-protein ligase inhibitor program, whole-cell format, luminescence detection, 384-well microplate (AID 1394); type: functional;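 note: MDM2 E3 inhibitors raise luminescence so EC50 is for signal enhancement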
Sequence of E3 ubiquitin-protein ligase Mdm2 (Q00987 whole entry): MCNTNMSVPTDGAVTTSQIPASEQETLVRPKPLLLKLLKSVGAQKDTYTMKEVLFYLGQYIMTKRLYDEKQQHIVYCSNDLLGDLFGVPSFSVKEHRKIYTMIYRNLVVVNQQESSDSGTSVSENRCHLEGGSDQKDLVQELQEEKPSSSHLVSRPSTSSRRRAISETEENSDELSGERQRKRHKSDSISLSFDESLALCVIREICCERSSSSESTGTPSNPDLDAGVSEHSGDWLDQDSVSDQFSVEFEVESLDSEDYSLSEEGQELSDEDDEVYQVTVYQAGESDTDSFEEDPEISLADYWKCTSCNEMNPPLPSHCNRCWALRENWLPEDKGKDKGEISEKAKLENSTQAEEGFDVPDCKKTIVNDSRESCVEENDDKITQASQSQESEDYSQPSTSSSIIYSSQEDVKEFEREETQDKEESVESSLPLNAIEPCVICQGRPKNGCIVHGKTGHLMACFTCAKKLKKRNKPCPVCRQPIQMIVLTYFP

[5] = molecular target: T2, Methionyl-tRNA synthetase, putative (Trypanosoma brucei brucei, UniProt Q38C91); type: functional, Trypanosoma brucei brucei strain 927/4 GUTat10.1
T2 sequence (Q38C91 whole entry): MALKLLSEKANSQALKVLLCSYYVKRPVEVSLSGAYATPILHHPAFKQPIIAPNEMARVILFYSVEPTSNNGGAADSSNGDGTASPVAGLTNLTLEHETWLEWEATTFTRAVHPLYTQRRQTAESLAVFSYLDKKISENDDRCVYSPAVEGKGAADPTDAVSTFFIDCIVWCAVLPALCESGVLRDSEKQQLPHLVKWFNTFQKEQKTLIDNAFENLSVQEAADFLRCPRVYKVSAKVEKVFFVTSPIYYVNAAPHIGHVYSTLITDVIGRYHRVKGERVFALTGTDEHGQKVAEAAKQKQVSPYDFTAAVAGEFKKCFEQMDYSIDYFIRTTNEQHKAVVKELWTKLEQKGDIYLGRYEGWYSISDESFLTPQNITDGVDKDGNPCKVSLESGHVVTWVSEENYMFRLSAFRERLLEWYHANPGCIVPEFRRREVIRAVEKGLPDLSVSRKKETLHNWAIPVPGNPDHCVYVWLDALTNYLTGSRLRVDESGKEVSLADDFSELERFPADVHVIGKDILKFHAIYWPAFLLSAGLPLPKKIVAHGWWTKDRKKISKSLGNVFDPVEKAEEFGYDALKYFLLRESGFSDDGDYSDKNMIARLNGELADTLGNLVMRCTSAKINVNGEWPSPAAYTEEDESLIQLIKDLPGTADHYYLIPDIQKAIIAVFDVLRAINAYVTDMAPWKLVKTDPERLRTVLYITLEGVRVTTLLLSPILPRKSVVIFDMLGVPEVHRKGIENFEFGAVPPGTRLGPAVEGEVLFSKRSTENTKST

[6] = Counterscreen for inhibitors of Trypanosoma brucei methionyl tRNA synthetase (MetRS): Luminescence-based cell-based high throughput dose response assay to identify compounds that are cytotoxic to Jurkat human T lymphocyte cells.; type: functional
[7] = Late stage counterscreen for inhibitors of Trypanosoma brucei methionyl tRNA synthetase (MetRS): Luminescence-based cell-based high throughput dose response assay to identify compounds that are cytotoxic to Jurkat human T lymphocyte cells.; type: functional
[8] = molecular target: T2, Methionyl-tRNA synthetase, putative; type: functional, Trypanosoma brucei brucei strain 927/4 GUTat10.1; remark: listed apart in the source
[9] = toxicity to human HepG2 hepatoma cells – cell-based, plate reader, dry powder samples, cytotoxicity control, dose response (AID 1159569); type: functional;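 note: inhibitor potency with signal falling toward the positive control level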
[10] = toxicity to human hepatoma HepG2 cells – cell-based, cherry-picked samples, cytotoxicity control, dose response (AID 1159577); type: functional
[11] = growth inhibition of PfATP4-mutant resistant parasites – NITD609-resistant line, SYBR Green, dry powder, dose response (AID 1159571); type: functional, cell-based;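 note: parasites synchronized at ring stage by sorbitol before testing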
[12] = Dd2 malaria parasite growth inhibition potency – SYBR Green, dry powder samples, dose response (AID 1159566); type: functional, cell-based;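 note: potency for growth inhibition with lower SYBR green DNA signal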
[13] = growth inhibition of yeast DHODH-expressing 3D7 parasites – SYBR Green, dry powder samples, dose response (AID 1159570); type: functional, cell-based;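 note: parasite growth measured after 72 hours of compound exposure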
[14] = P. falciparum Dd2 growth inhibitors, dose response, SYBR Green, cherry-picked samples (AID 1159567); type: functional, cell-based
[15] = Dd2 parasite growth inhibition in erythrocytes – SYBR Green, dry powder samples, set 9, dose response (AID 1159568); type: functional, cell-based
SUMO-activating enzyme [16] = molecular target: T3, SUMO-activating enzyme (Homo sapiens, UniProt Q9UBT2); assay: blockers of UBC9-mediated SUMO conjugation – biochemical, AlphaScreen, SUMOylation inhibitor project, confirmation (AID 2018); type: functional
T3 sequence (Q9UBE0 whole entry): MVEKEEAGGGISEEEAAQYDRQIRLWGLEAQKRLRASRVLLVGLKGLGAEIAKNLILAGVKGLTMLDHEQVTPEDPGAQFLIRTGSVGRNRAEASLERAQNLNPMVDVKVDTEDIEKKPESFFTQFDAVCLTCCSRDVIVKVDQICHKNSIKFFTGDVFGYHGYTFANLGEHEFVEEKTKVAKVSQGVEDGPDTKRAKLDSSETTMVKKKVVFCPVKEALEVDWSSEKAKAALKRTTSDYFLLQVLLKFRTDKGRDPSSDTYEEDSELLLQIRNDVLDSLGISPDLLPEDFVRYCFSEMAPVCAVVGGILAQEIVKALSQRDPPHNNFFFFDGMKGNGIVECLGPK
T3 sequence (Q9UBT2 whole entry): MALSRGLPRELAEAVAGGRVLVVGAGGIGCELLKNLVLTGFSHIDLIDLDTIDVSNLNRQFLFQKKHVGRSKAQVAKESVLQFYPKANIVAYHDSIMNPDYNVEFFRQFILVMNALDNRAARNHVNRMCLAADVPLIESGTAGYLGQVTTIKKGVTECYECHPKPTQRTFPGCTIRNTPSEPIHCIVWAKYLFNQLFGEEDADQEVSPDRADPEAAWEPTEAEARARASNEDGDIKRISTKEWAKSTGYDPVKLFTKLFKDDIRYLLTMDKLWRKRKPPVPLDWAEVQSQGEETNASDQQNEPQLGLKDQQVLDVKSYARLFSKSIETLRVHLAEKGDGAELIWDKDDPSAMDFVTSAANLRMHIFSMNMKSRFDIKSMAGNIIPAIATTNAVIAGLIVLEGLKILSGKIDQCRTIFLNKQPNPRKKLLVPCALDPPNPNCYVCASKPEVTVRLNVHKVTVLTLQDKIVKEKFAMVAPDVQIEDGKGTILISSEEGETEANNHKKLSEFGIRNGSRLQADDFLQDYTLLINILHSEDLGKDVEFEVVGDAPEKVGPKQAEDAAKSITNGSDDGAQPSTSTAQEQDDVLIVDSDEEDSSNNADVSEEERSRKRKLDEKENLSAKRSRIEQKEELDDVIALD

SUMO-activating enzyme [17] = molecular target: T3, SUMO-activating enzyme; assay: blockers of SAE1/SAE2–UBC9 SUMO transfer – biochemical, HTRF, uHTS, primary screen (AID 2006); type: protein-complex assay
[18] = molecular target: Eukaryotic translation initiation factor 4E (Mus musculus, UniProt P63073); assay: blockers of eIF4G binding by eIF4E – biochemical, TR-FRET, dose response (AID 855); type: functional;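 note: potency for disrupting eIF4E binding to eIF4GI seen as loss of FRET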
Sequence of Eukaryotic translation initiation factor 4E (P63073 whole entry): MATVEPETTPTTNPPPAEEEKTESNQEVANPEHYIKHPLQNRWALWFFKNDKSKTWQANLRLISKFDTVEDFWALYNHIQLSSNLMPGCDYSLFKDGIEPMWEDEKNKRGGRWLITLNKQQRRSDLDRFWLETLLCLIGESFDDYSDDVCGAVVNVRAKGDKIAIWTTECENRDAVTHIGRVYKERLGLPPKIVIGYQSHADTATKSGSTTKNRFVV

[19] = molecular target: Bifunctional protein GlmU (Mycobacterium tuberculosis, UniProt P9WMN3); assay: Inhibitors of Mycobacterial Glucosamine-1-phosphate acetyl transferase (GlmU). Secondary screen.; design: species or system Mycobacterium tuberculosis H37Rv
Sequence of Bifunctional protein GlmU (P9WMN3 whole entry): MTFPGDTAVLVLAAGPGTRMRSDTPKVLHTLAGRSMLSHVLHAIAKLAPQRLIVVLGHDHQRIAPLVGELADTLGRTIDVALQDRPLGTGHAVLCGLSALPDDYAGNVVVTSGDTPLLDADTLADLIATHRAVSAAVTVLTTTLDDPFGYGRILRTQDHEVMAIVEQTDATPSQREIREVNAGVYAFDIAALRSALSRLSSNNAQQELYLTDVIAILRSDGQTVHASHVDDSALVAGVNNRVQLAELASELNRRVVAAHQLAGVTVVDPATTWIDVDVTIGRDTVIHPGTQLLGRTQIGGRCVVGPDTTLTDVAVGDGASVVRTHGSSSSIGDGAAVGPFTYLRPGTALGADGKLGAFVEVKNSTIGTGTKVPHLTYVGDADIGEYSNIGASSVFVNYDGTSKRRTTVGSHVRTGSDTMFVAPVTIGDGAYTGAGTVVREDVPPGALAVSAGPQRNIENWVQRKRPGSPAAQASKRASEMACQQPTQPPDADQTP

Q: Which results are given for `O=C1C(Cl)=C(N2CCOCC2)C(=O)N1c1ccc(Cl)cc1Cl`?
A: IC50 (Bcl-2-related protein A1 [1]): > 100 µM (not active); IC50 (Bcl-2-related protein A1 [2]): > 100 µM (not active); IC50 [3]: > 10 µM (inconclusive)

Q: For `CCOc1ccc(NC(=S)NCCCN2CCOCC2)cc1`, which EC50 [4] is on record?
A: Its EC50 is 1.95 µM (not active).

Q: Which IC50 [5] does the source give for `CCCCCCCCCC1NC(C(=O)O)Cc2c1[nH]c1ccccc21` (stereo unspecified) here?
A: Its IC50 is 1.96 µM (active).

Q: And the IC50 [6]?
A: Its IC50 is 83.3 µM (inactive).

Q: And the IC50 [7]?
A: Its IC50 is > 83.3 µM (inactive).

Q: And the IC50 [8]?
A: Its IC50 is 3.75 µM (active).

Q: Which results are given for `OC[C@@H]1[C@@H](c2ccccc2)C2(CN(Cc3ccc4c(c3)OCO4)C2)N1Cc1ccccc1`?
A: AC50 [9]: 17.9 µM (active); AC50 [10]: > 39 µM (inactive); AC50 [11]: 616 nM (active); AC50 [12]: 444 nM (active); AC50 [13]: 634 nM (active); AC50 [14]: 619 nM (active)

Q: For `C[C@H]1CN([C@@H](C)CO)C(=O)c2cccc(NC(=O)c3ccc(-c4nccs4)cc3)c2O[C@H]1CN(C)C(=O)Nc1ccc(C(F)(F)F)cc1`, which AC50 [15] is on record?
A: Its AC50 is 8.06 µM (active).

Q: For `C[C@H](CO)N1C[C@H](C)[C@@H](CN(C)S(=O)(=O)c2ccccc2)OCCCC[C@H](C)Oc2ccc(NC(=O)Nc3ccc4c(c3)OCO4)cc2C1=O`, which AC50 [15] is on record?
A: The AC50 was 2.35 µM (active).

Q: For `COc1ccc2c3c([nH]c2c1)[C@H](CO)N(C(=O)CN(C)C)CC31CCN(CC2CCCCC2)CC1`, which AC50 [9] is on record?
A: The AC50 was 19.1 µM (active).

Q: And the AC50 [10]?
A: The AC50 was > 39 µM (inactive).

Q: What about the AC50 [11] of the same compound?
A: Its AC50 is 1120 nM (active).

Q: What about the AC50 [12] of the same compound?
A: Its AC50 is 433 nM (active).

Q: And the AC50 [13]?
A: The AC50 was 46.8 nM (active).

Q: And the AC50 [14]?
A: Its AC50 is 644 nM (active).

Q: For `O=C(O)CCCCC1CCSS1` (stereo not drawn) [LIPOIC ACID, ALPHA], which IC50 (SUMO-activating enzyme [16]) is on record?
A: Its IC50 is 620 nM (active).

Q: What about the IC50 (SUMO-activating enzyme [17]) of the same compound?
A: Its IC50 is 4.74 µM (active).

Q: And the IC50 [18]?
A: Its IC50 is 16.6 µM (active).

Q: And the IC50 [19]?
A: The IC50 was 3.91 µM (active).

Source: ChEMBL document CHEMBL1201862, “PubChem BioAssay data set” (2004)
